Values of other authors as cited in patent US7153888B2, “Stabilization of benzoyl peroxide in solution” (Alpharx Inc., priority 2004, dated 2006).

Key:
[1] = not given; remark: listed apart in the source

Q: With `O=C(OOC(=O)c1ccccc1)c1ccccc1` [benzoyl peroxide] as the compound, how does the solubility (common solvents such as alcohol, PEG and propylene glycol) read?
A: Its solubility is “below 20 mg/ml”.

Q: What about the drop of solubility (water-miscible solvent, water content grows from 0 to 25%) of the same compound?
A: The drop of solubility was 2–4 orders of magnitude.

Q: And the stability by solvent ([1]; in PEG 400)?
A: The stability by solvent was “least stable”.

Q: What about the time until destroyed ([1]; in the presence of ethanol and acidic chelating agents, stored at 30° C. or 40° C.) of the same compound?
A: The time until destroyed was ≤ 1 month.

Q: And the “first-order K value of decomposition” value ([1]; polyethylene glycol ointment base, 24° C.)?
A: Its value is 0.028 day⁻¹.

Q: And the “half-life (50% content decrease)” value ([1]; pure BP in different solvents, room temperature)?
A: Its value is 151 to 6380 h.

Q: And the “potency of benzoyl peroxide suspension (decrease from 5%)” value ([1]; suspension in polyethylene glycol ointment base, 50° C., 5 days)?
A: Its value is “less than 1%”.
